What follows are compounds tested against human PDE1B (Homo sapiens (Human), UniProt Q01064) (assay: PDE1B inhibitory assay (IMAP TR-FRET)). Conditions: PDE1B pIC50, negative log of half-maximal molar inhibitory concentration; 200 nM FAM-cAMP, Calmodulin, CaCl2.
Protocol: PDE1B inhibition was determined by an IMAP TR-FRET assay.
After a brief centrifugation, the plates were incubated for 30 minutes at room temperature. The assay was terminated by adding 5 μL IMAP binding reagent/Tb complex (Molecular Devices, Sunnyvale, Calif.) to each well.
Plates were incubated 1 hour at room temperature and read on a Viewlux multimode plate reader (Perkin Elmer). The instrument was set to excite using the DUG11 filter and measure using 490/10 nm and 520/10 nm filters. Ratios of acceptor and donor were then calculated.
For IC50 calculations, the values of % efficacy versus a series of compound concentrations were then plotted using non-linear regression analysis of sigmoidal dose-response curves generated with the equation Y=B+(T−B)/1+10((Log EC50−X)×Hill Slope), where Y=percent activity, B=minimum percent efficacy, T=maximum percent efficacy, X=logarithm of compound and Hill Slope=slope factor or Hill coefficient. The IC50 value was determined by the concentration causing a half-maximal percent efficacy.
`COc1ccc(Cn2c(=O)n3ncnc3c3c4c(sc32)N(C(=O)c2ccccc2)CCC4)cc1OC` [Example 176] was tested, and the IC50 was 1000 to 10000 nM.
`COc1ccc(Cn2c(=O)n3ncnc3c3c4c(sc32)CN(CC2CNCCO2)CC4)cc1` (stereo not shown) [Example 180, 6-(4-Methoxybenzyl)-9-(morpholin-2-ylmethyl)-8,9,10,11-tetrahydropyrido[4′,3′:4,5]thieno[3,2-e][1,2,4]triazolo[1,5-c]pyrimidin-5(6H)-one] showed an IC50 of 100 to 1000 nM.
In the case of `COc1ccc(Cn2c(=O)n3ncnc3c3c4c(sc32)CN(C(=O)C2CCNC2)CC4)cc1` (stereo not shown) [Example 181], the IC50 is reported as 100 to 1000 nM.
Work on `COc1ccc(Cn2c(=O)n3ncnc3c3c4c(sc32)CN(CC2CCNCC2)CC4)cc1` [Example 182] yielded an IC50 of 100 to 1000 nM.
In the case of `COc1ccc(Cn2c(=O)n3nccc3c3cc(CN4CCOCC4)sc32)cc1` [Example 183, 4-(4-Methoxybenzyl)-2-(morpholinomethyl)pyrazolo[1,5-c]thieno[3,2-e]pyrimidin-5(4H)-one], the IC50 is reported as 100 to 1000 nM.
With `COc1ccc(Cn2c(=O)n3ncnc3c3cc(Br)cnc32)cc1` [Example 185, 9-Bromo-6-(4-methoxybenzyl)pyrido[3,2-e][1,2,4]triazolo[1,5-c]pyrimidin-5(6H)-one] the IC50 was 100 to 1000 nM.
`COc1ccc(Cn2c(=O)n3ncnc3c3ncc(Br)cc32)cc1` [Example 186] showed an IC50 of 1000 to 10000 nM.
`COc1ccc(Cn2c(=O)n3ncnc3c3ccc(C(OC)OC)nc32)cc1` [Example 187] gave an IC50 of 1000 to 10000 nM.
`COc1ccc(Cn2c(=O)n3ncnc3c3nc(Br)cnc32)cc1` [Example 188] showed an IC50 of 100 to 1000 nM.
Work on `COc1ccc(Cn2c(=O)n3ncnc3c3cc(-c4ccc(OC)nc4)cnc32)cc1` [Example 190] yielded an IC50 of 100 to 1000 nM.
Work on `COc1ccc(Cn2c(=O)n3ncnc3c3cc(-n4nc(C)ccc4=O)cnc32)cc1` [Example 192, 6-(4-Methoxybenzyl)-9-(3-methyl-6-oxopyridazin-1(6H)-yl)pyrido[3,2-e][1,2,4]triazolo[1,5-c]pyrimidin-5(6H)-one] yielded an IC50 of 100 to 1000 nM.
`COc1ccc(Cn2c(=O)n3ncnc3c3cc(N4CCN(C5CC5)CC4)cnc32)cc1` [Example 193, 9-(4-Cyclopropylpiperazin-1-yl)-6-(4-methoxybenzyl)pyrido[3,2-e][1,2,4]triazolo[1,5-c]pyrimidin-5(6H)-one] gave an IC50 of 100 to 1000 nM.
In the case of `COc1ccc(Cn2c(=O)n3ncnc3c3cc(N[C@H]4CCCC[C@@H]4N)cnc32)cc1` [Example 194], the IC50 is reported as 1000 to 10000 nM.
Work on `COc1ccc(Cn2c(=O)n3ncnc3c3nc(N(C)C4CCN(C)CC4)cnc32)cc1` [Example 195] yielded an IC50 of 1000 to 10000 nM.
Compound `COc1ccc(Cn2c(=O)n3ncnc3c3nc(N(C)CCN(C)C)cnc32)cc1` [Example 196] has an IC50 of 1000 to 10000 nM.
`COCCN1CCN(c2cnc3c(c2)c2ncnn2c(=O)n3Cc2ccc(OC)cc2)CC1` [Example 197] was tested, and the IC50 was 100 to 1000 nM.
`COc1ccc(Cn2c(=O)n3ncnc3c3cc(N4CCC(N(C)C)C4)cnc32)cc1` (stereo not shown) [Example 198] gave an IC50 of 100 to 1000 nM.
For `COc1ccc(Cn2c(=O)n3ncnc3c3cc(N4CCC(N(C)C)CC4)cnc32)cc1` [Example 199], the IC50 was 100 to 1000 nM.
In the case of `COc1ccc(Cn2c(=O)n3ncnc3c3cc(N(C)C4CCOCC4)cnc32)cc1` [Example 200], the IC50 is reported as 100 to 1000 nM.
With `COc1ccc(Cn2c(=O)n3ncnc3c3cc(N4C[C@@H](C)O[C@@H](C)C4)cnc32)cc1` [Example 201] the IC50 was 100 to 1000 nM.
`COc1ccc(Cn2c(=O)n3ncnc3c3cc(N(C)CCCN(C)C)cnc32)cc1` [Example 202] gave an IC50 of 1000 to 10000 nM.
In the case of `COc1ccc(Cn2c(=O)n3ncnc3c3cc(N4CCN(S(C)(=O)=O)CC4)cnc32)cc1` [Example 203], the IC50 is reported as 100 to 1000 nM.
Work on `COc1ccc(Cn2c(=O)n3ncnc3c3cc(CCNC(=O)OCc4ccccc4)cnc32)cc1` [Example 204, Benzyl 2-(6-(4-Methoxybenzyl)-5-oxo-5,6-dihydropyrido[3,2-e][1,2,4]triazolo[1,5-c]pyrimidin-9-yl)ethylcarbamate] yielded an IC50 of 100 to 1000 nM.
With `COc1ccc(Cn2c(=O)n3ncnc3c3cc(CN4CCOCC4)cnc32)cc1` [Example 205] the IC50 was 100 to 1000 nM.
`COc1ccc(Cn2c(=O)n3ncnc3c3cc(CN4CCCCC4)cnc32)cc1` [Example 206] gave an IC50 of 100 to 1000 nM.
`COc1ccc(Cn2c(=O)n3ncnc3c3cc(CN4CCSCC4)cnc32)cc1` [Example 207] gave an IC50 of 100 to 1000 nM.
`O=c1n(Cc2ccc(Cl)cc2)c2ncc(CN3CCOCC3)cc2c2ncnn12` [Example 208] was tested, and the IC50 was 100 to 1000 nM.
With `O=c1n(Cc2ccc(Cl)cc2)c2ncc(CN3CCCCC3)cc2c2ncnn12` [Example 209] the IC50 was 1000 to 10000 nM.
Work on `C[C@@H]1CN(Cc2cnc3c(c2)c2ncnn2c(=O)n3Cc2ccc(Cl)cc2)C[C@H](C)O1` [Example 210] yielded an IC50 of 100 to 1000 nM.
Compound `COc1ccc(Cn2c(=O)n3ncnc3c3cc(CCN)cnc32)cc1` [Example 211, 9-(2-Aminoethyl)-6-(4-methoxybenzyl)pyrido[3,2-e][1,2,4]triazolo[1,5-c]pyrimidin-5(6H)-one] has an IC50 of 1000 to 10000 nM.
With `COc1ccc(Cn2c(=O)n3ncnc3c3cc(CCNC4CCOCC4)cnc32)cc1` [Example 212, 6-(4-Methoxybenzyl)-9-(2-(tetrahydro-2H-pyran-4-ylamino)ethyl)pyrido[3,2-e][1,2,4]triazolo[1,5-c]pyrimidin-5(6H)-one] the IC50 was 1000 to 10000 nM.
`COc1ccc(Cn2c(=O)n3ncnc3c3cc(CCNC(C)c4ccccc4)cnc32)cc1` (stereo not shown) [Example 213] gave an IC50 of 100 to 1000 nM.
`C=Cc1cnc2c(c1)c1ncnn1c(=O)n2Cc1ccc(OC)cc1` [Example 214, 6-(4-Methoxybenzyl)-9-vinylpyrido[3,2-e][1,2,4]triazolo[1,5-c]pyrimidin-5(6H)-one] gave an IC50 of 100 to 1000 nM.
Work on `COCOCc1cnc2c(c1)c1ncnn1c(=O)n2Cc1ccc(OC)cc1` [Example 215] yielded an IC50 of 100 to 1000 nM.
`C=C(OCC)c1cnc2c(c1)c1ncnn1c(=O)n2Cc1ccc(OC)cc1` [Example 216] gave an IC50 of 100 to 1000 nM.
`COc1ccc(Cn2c(=O)n3ncnc3c3cc(CO)cnc32)cc1` [Example 217, 9-(Hydroxymethyl)-6-(4-methoxybenzyl)pyrido[3,2-e][1,2,4]triazolo[1,5-c]pyrimidin-5(6H)-one] showed an IC50 of 100 to 1000 nM.
In the case of `COc1ccc(Cn2c(=O)n3ncnc3c3cc(CN4CC5CC4CO5)cnc32)cc1` (stereo not shown) [Example 218, 9-(2-Oxa-5-azabicyclo[2.2.1]heptan-5-ylmethyl)-6-(4-methoxybenzyl)pyrido[3,2-e][1,2,4]triazolo[1,5-c]pyrimidin-5(6H)-one], the IC50 is reported as 100 to 1000 nM.
Work on `COc1ccc(Cn2c(=O)n3ncnc3c3cc(CN(C)C)cnc32)cc1` [Example 219] yielded an IC50 of 1000 to 10000 nM.
In the case of `COc1ccc(Cn2c(=O)n3ncnc3c3cc(CN4CCN(C)CC4)cnc32)cc1` [Example 221], the IC50 is reported as 100 to 1000 nM.
For `COc1ccc(Cn2c(=O)n3ncnc3c3cc(CN4CCOC(C)(C)C4)cnc32)cc1` [Example 223], the IC50 was 100 to 1000 nM.
`COc1ccc(Cn2c(=O)n3ncnc3c3cc(CN4CC(F)(F)OC(F)(F)C4)cnc32)cc1` [Example 226] was tested, and the IC50 was 100 to 1000 nM.
`COc1ccc(Cn2c(=O)n3ncnc3c3cc(CN4CC5CCC(C4)O5)cnc32)cc1` [Example 227] was tested, and the IC50 was 100 to 1000 nM.
`COc1ccc(Cn2c(=O)n3ncnc3c3cc(CN4CCOCC4C)cnc32)cc1` (stereo not shown) [Example 230] gave an IC50 of 100 to 1000 nM.
`COc1ccc(Cn2c(=O)n3ncnc3c3nc(CN4C[C@@H](C)O[C@@H](C)C4)cnc32)cc1` [Example 231] showed an IC50 of 100 to 1000 nM.
Compound `COc1ccc(Cn2c(=O)n3ncnc3c3cc(CN4CCCN(C)CC4)cnc32)cc1` [Example 232] has an IC50 of 1000 to 10000 nM.
In the case of `COc1ccc(Cn2c(=O)n3ncnc3c3cc(CN4CCCOCC4)cnc32)cc1` [Example 233], the IC50 is reported as 100 to 1000 nM.
With `COc1ccc(Cn2c(=O)n3ncnc3c3cc(CN4CCCN(C(C)=O)CC4)cnc32)cc1` [Example 234] the IC50 was 100 to 1000 nM.
Compound `COc1ccc(Cn2c(=O)n3ncnc3c3cc(CN(C)C4CCCCC4)cnc32)cc1` [Example 235] has an IC50 of 1000 to 10000 nM.
`COc1ccc(Cn2c(=O)n3ncnc3c3cc(CN4CCC(OC)CC4)cnc32)cc1` [Example 236] showed an IC50 of 100 to 1000 nM.

Same assay, conditions: negative log of half-maximal molar inhibitory concentration; 200 nM FAM-cAMP, Calmodulin, CaCl2
For `COc1ccc(Cn2c(=O)n3ncnc3c3c4c(sc32)CN(C(=O)C2CCOC2)CC4)c(F)c1` (stereo not shown) [Example 167], the “PDE1B pIC50” value was greater than 7.
In the case of `COc1ccc(Cn2c(=O)n3ncnc3c3c4c(sc32)CN(C(=O)C2CC2)CC4)c(F)c1` [Example 168], the “PDE1B pIC50” value is reported as greater than 7.
`COc1ccc(Cn2c(=O)n3ncnc3c3c4c(sc32)CN(C(=O)[C@@H]2CCOC2)CC4)cc1` [Example 169] was tested, and the “PDE1B pIC50” value was greater than 7.
In the case of `COc1ccc(Cn2c(=O)n3ncnc3c3c4c(sc32)CN(C(=O)C2CCOC2)CC4)cc1` (stereo not shown) [Example 170], the “PDE1B pIC50” value is reported as greater than 7.
`COc1ccc(Cn2c(=O)n3ncnc3c3c4c(sc32)N(C(=O)C2CC2)CCC4)cc1` [Example 174] was tested, and the “PDE1B pIC50” value was greater than 7.
With `COc1ccc(Cn2c(=O)n3ncnc3c3c4c(sc32)N(C(=O)C2CCOC2)CCC4)cc1` (stereo not shown) [Example 175] the “PDE1B pIC50” value was greater than 7.
In the case of `COc1ccc(Cn2c(=O)n3ncnc3c3c4c(sc32)CN(c2ccccn2)CC4)cc1` [Example 179, 6-(4-Methoxybenzyl)-9-(pyridin-2-yl)-8,9,10,11-tetrahydropyrido[4′,3′:4,5]thieno[3,2-e][1,2,4]triazolo[1,5-c]pyrimidin-5(6H)-one], the “PDE1B pIC50” value is reported as greater than 7.
`COc1ccc(Cn2c(=O)n3nccc3c3cc(CN4C[C@@H](C)O[C@@H](C)C4)sc32)cc1` [Example 184] was tested, and the “PDE1B pIC50” value was greater than 7.
For `COc1ccc(Cn2c(=O)n3ncnc3c3cc(-c4ccc(OC)c(OC)c4)cnc32)cc1` [Example 189, 9-(3,4-Dimethoxyphenyl)-6-(4-methoxybenzyl)pyrido[3,2-e][1,2,4]triazolo[1,5-c]pyrimidin-5(6H)-one], the “PDE1B pIC50” value was greater than 7.
With `COc1ccc(Cn2c(=O)n3ncnc3c3cc(-c4cccnc4OC)cnc32)cc1` [Example 191] the “PDE1B pIC50” value was greater than 7.
`COc1ccc(Cn2c(=O)n3ncnc3c3cc(CN4C[C@@H](C)O[C@@H](C)C4)cnc32)cc1` [Example 220] was tested, and the “PDE1B pIC50” value was greater than 7.
In the case of `CCC1CN(Cc2cnc3c(c2)c2ncnn2c(=O)n3Cc2ccc(OC)cc2)CCO1` (stereo not shown) [Example 224], the “PDE1B pIC50” value is reported as greater than 7.
For `COc1ccc(Cn2c(=O)n3ncnc3c3cc(CN4CC(C)OCC4C)cnc32)cc1` (stereo not shown) [Example 225], the “PDE1B pIC50” value was greater than 7.
For `COc1ccc(Cn2c(=O)n3ncnc3c3cc(CN4CCC5(CCOCC5)N4C)cnc32)cc1` [Example 228], the “PDE1B pIC50” value was greater than 7.
With `COc1ccc(Cn2c(=O)n3ncnc3c3cc(CN4CCOC(C)C4)cnc32)cc1` (stereo not shown) [Example 229] the “PDE1B pIC50” value was greater than 7.

Source: US10105367B2, “Therapeutic thiophene-, furan-, and pyridine-fused azolopyrimidin-5-(6h)-ones” (Dart Neuroscience (Cayman) Ltd., priority 2012, dated 2018)
